This note sets out measurements from patent US20250177375A1, “AZAPHILONE COMPOUND AND USE THEREOF IN PREPARATION OF ANTI-TUMOR DRUGS” (OCEAN UNIVERSITY OF CHINA, priority 2022, published 2025).

pIC50: −log10 of the molar value. “Also recorded” adds a separate entry of the source.

Assay [1] deals with NK92 cells. Nature of the assay: NK cell activation factor release (ELISA) after co-culture with NCI-H1975. It counts as cell-based, Human. The protocol: NK cells release granzyme B and perforin to kill tumor cells upon activation, while release IFN-γ to regulate the mechanism of antitumor immunity.
5.1 Pre-treatment of NK92 Cells with Compound 1778: Seed NK92 cells into a 24-well plate and treat with drug as described in section 3.1.
Seed logarithmic phase NCI-H1975 cells into 96-well plates at a concentration of 1×10^4 cells/well. Set up 3 replicates for each concentration and control wells for target cell. Incubate the 96-well plate overnight in a 37° C., 5% CO2 incubator.
According to the effector-to-target ratio of 5:1, add NK92 cells to NCI-H1975, co-cultivate for over 6 h and centrifuge (500 g, 25° C.). Then collect supernatant (use within 24 h). Use ELISA kits (BD Biosciences, USA) to detect the release of 3 activating cytokines granzyme B (FIG. 3), perforin (FIG. 4), and IFN-γ (FIG. 5).
Background: ELISA stands for enzyme-linked immunosorbent assay.

Assay [2] concerns NK92 cells. Put plainly: Killing function of NK92 cells against tumor cells after compound treatment (LDH assay, initial screening). The note with it: for cytotoxicity at 0.1 µM: Homo sapiens, NK92 treated at 100 nM for 72 h, effector-to-target ratio 5:1, 5 h co-culture, LDH release, read-out: tumor killing rate by NK activation. The format is cell-based, Human. As for the experimental part:
(§1) Seed the NK92 cells obtained from 1.3 into a 24-well cell culture plate (referred to as a 24-well plate) at a concentration of 3×10^5 cells/well, with 4 wells designated as blank or drug-treated. For the drug-treated wells, set the initial screening concentration to 100 nM. Add 900 μL of cell suspension and 100 μL of drug to each well. For the blank wells, add 100 μL of double-distilled water. Incubate the 24-well plate in a 37° C., 5% CO2 incubator for 72 h. Replace the fresh culture medium and add drugs every 24 h during the incubation.
(§2) Seed various types of tumor cells in logarithmic phase into a 96-well cell culture plate at a concentration of 5×10^3 cells/well. Set up 3 replicate wells for each concentration and include wells for target cell spontaneous release and target cell maximum release. Incubate the 96-well plate overnight in a 37° C., 5% CO2 incubator.
Centrifuge and count the NK92 cells from 2.1 in the 24-well plate cultured for 72 h. Add the cells to the overnight-cultured tumor target cells according to the effector-to-target ratio of 5:1 (excluding wells for target cell spontaneous release and maximum release). Also, set up 3 effector cell control wells. Add 200 μL of cell suspension to each well, then centrifuge at 300 g, 25° C. for 5 min to allow sufficient contact between effector cells and target cells. Continue to place the 96 well plate in a 37° C., 5% CO2 incubator and co-cultivate the NK92 and target cells for 5 h.
Lactate dehydrogenase (LDH) assay kit (BioGend Biotech Co., Ltd.) is used to detect the killing effect of effector cells on target cells. Add LDH release reagent to the wells with target cell maximum release and incubate for 1 h. After 1 h, centrifuge at 500 g, 25° C. for 5 min. Transfer 120 μL of supernatant from each well to a new 96-well plate, add the prepared LDH detection solution (60 μL/well: 20 μL lactate solution, 20 μL 1×INT working solution, and 20 μL enzyme solution) in the dark, and mix well by pipetting. Incubate at room temperature in the dark for 20 min (wrapped in aluminum foil and shook slowly on a shaker). Measure the absorbance at 490 nm using a microplate reader and the measured absorbance value of each well should subtract the absorbance value of the background blank control well.
Cytotoxicity (%)=[(Experimental group−Effector cell control−Target cell spontaneous release)/(Target cell maximum release−Target cell spontaneous release)]×100.
(In general: Release of lactate dehydrogenase indicates damage to the cell membrane.)

The subject of assay [3] is NK92 cells. Nature of the assay: Killing ability of NK cell against tumor cells after treatment with 1778 (1, 10, 100 nM). The format is cell-based, Human. As for the experimental part:
as §1, §2
Centrifuge and count the NK92 cells from 2.1 in the 24-well plate cultured for 72 h. […]
Lactate dehydrogenase (LDH) assay kit (BioGend Biotech Co., Ltd.) is used to detect the killing effect of effector cells on target cells. […] Measure the absorbance at 490 nm using a microplate reader and the measured absorbance value of each well should subtract the absorbance value of the background blank control well. […]

In assay [4] the test system is NK92 cells. Put plainly: NK cell proliferation rate using CCK-8. The conditions noted are these: 1-10000 nM, 72 h, FIG. 1. It counts as cell-based, Human. As for the experimental part:
3. Determination of NK Cell Proliferation Rate Using CCK-8 after Treatment with 1778 3.1 Preparation of Compound Concentration Gradient: Dilute the azaphilone compound 1778 with double-distilled water to set up 5 concentrations, with final concentrations of 1, 10, 100, 1000, and 10000 nM in the wells.
Seed NK92 cells obtained from 1.3 into 96-well cell culture plate (referred to as a 96-well plate) at a concentration of 1×10^4 cells/well, […]. Set up 5 replicates for each compound concentration (also need to set a blank group, that is, double-distilled water replaces the compound), and seal wells with PBS. Incubate in a 37° C., 5% CO2 incubator for 72 h.
Remove the cell culture plates from 2.2 and add 10 μL of CCK-8 solution (Shanghai Yisheng Biotechnology Co., Ltd.) to each well, avoiding bubbles. After adding CCK-8 solution, incubate the 96-well cell culture plates in a 37° C., 5% CO2 incubator for 2.5 h. Measure the absorbance at 450 nm using a microplate reader to compare the proliferation level of NK92 cells.

In assay [5] the test system is primary NK cells from the pleural fluid of lung cancer patients. Put plainly: Primary NK cell activation (CD107 flow cytometry), pleural effusion from lung cancer patients. The format is cell-based, Human. The conditions noted are these: 1, 10, 100 nM, 72 h, K562 targets 5:1, FIG. 7. The protocol: (§3) CD107 is expressed on the surface of NK cells released by the activator. Therefore, the activation of NK cells can be reflected by detecting the content of CD107 expressed by cell membrane.
(§4) 6.1 Collect peripheral blood from normal individuals and pleural effusion from lung cancer patients using sterile anticoagulant tubes, and dilute with an equal volume of sterile PBS. Take a 50 ml centrifuge tube and absorb a certain volume of lymphocyte separation solution (Solarbio Science & Technology Co., Ltd.). Slowly add diluted peripheral blood and pleural effusion in a volume ratio of 4:3. Centrifuge at 400 g at room temperature for 30 min (Adjust the lifting and deceleration speed of the centrifuge to rise 1 or down 1). 6.2 Carefully absorb the white lymphocyte layer in the middle and place it in PBS (at least three times the volume of the absorbed cells). Overturn and blending, and wash the cells. Centrifuge at 100 g at room temperature for 10 min. Discard the supernatant, resuspend the cell pellet in 10 ml PBS, and gently mix. Wash off residual Ficoll, then centrifuge again at 100 g for 10 min. Discard the supernatant, resuspend the cell pellet in RPMI-1640 complete medium, and continue culture for 3 days with RPMI-1640 complete medium containing 10 ng/ml IL-2 to stimulate primary NK cell expansion and activation. […] The detection results were analyzed using FlowJo software.

The subject of assay [6] is primary NK cells isolated from the peripheral blood of healthy individuals. Put plainly: Primary NK cell activation (CD107 flow cytometry), peripheral blood PBMCs from healthy donors. It counts as cell-based, Human. The conditions noted are these: 1, 10, 100 nM, 72 h, K562 targets 5:1, FIG. 6. As for the experimental part: as §3, §4
A further assay concerns cancer cell lines. Nature of the assay: In vitro assays of cancer cell lines. It counts as cell-based. The note with it: direct activity on cancer cell lines; read-out: IC50 in all in vitro assays of cancer cell lines. An excerpt: In prior research (Sun C.; Ge X.; Mudassir S.; Zhou L.; Yu G.; Che Q.; Zhang G.; Peng J.; Gu Q.; Zhu T. New glutamine-containing azaphilone alkaloids from deep-sea-derived fungus Chaetomium globosum HDN151398. Mar. Drugs 2019, 17, 253.), the inventors discovered compound 1778.

For the next assay, the system named is B16F10 melanoma cells. Put plainly: Melanoma lung metastasis model in C57BL/6 mice. It counts as in vivo. The note with it: 25 mg/kg daily intraperitoneal, 14 days; B16F10 via tail vein; FIG. 8. As for the experimental part:
To investigate whether 1778 works in vivo, we used a melanoma lung metastasis model.
Mouse B16F10 melanoma cells were intravenously injected into mice, and then 1778 was administered for efficacy evaluation. B116F10 cells are highly metastatic and lack MHC class-I expression, and it has been previously reported that the metastasis of B116F10 cells in vivo is mainly controlled by NK cells.
7.1 Inject 200,000 B116F10 cells via the tail vein into each C57BL/6J mouse. 7.2 A daily intraperitoneal injection of 1778 at a dose of 25 mg/kg (diluted with PBS solution to a final volume of 200 μL). The control group was injected intraperitoneally with an equivalent volume of PBS (with the same concentration of solvent DMSO). Weigh the mice every other day to monitor the impact on body weight. After 14 days of drug administration, euthanize the mice, collect lung tissue, and fix it in tissue fixative. Count and statistically analyze the number of melanoma colonies in the lungs.

For `C/C=C(\C)C(=O)C1=C2C3=CN([C@@H](CCC(=O)O)C(=O)O)C(/C=C/[C@@H](C)CC)=CC3=C(Cl)C(=O)[C@@]2(C)OC1=O` [Compound 1778], in the assay on NK92 cells [1] (co-culture with NCI-H1975, 5:1, FIG. 3), the “release of granzyme B by NK-92 cells” value was “promotes the releases; also recorded: significantly promotes the release”. Moreover, the “release of perforin by NK-92 cells” value in the assay on NK92 cells [1] (co-culture with NCI-H1975, 5:1, FIG. 4) is reported as “promotes the releases; also recorded: significantly promotes the release”. Besides, in the assay on NK92 cells [1] (co-culture with NCI-H1975, 5:1, FIG. 5), the “release of IFN-γ by NK-92 cells” value is recorded as “significantly promotes the release; also recorded: promotes the releases”. In addition, in the assay on NK92 cells [2], the cytotoxicity at 0.1 µM came to 75.2%. In addition, the “activation effect on NK92 cells” value in the assay on NK92 cells [2] (summary in words of the 100 nM screening table) is given as “very strong activation effect”. In addition, the “ability of NK92 cells to kill various types of tumor cells” value in the assay with NK92 cells [3] (1, 10, 100 nM, FIG. 2) was “significantly enhances; also recorded: significantly promotes the killing activity”. The “concentration at which NK cells are activated” value with NK92 cells [3] (concentrations as low as) lay in the range of 1 to 100 nM. For the same compound, the “proliferation of NK92 cells” value with NK92 cells [4] is on record as “weak proliferative effect; also recorded: promotes the proliferation”. Besides, the “expression of CD107 (degranulation) in primary NK cells” value in assay [5] and in assay [6] was “significantly promotes the degranulation; also recorded: significant increase” in each case. Moreover, the pIC50 (as a rule, the negative decadic logarithm of the IC50, by convention in mol/L) with cancer cell lines is below 4.30. Moreover, the “number of lung metastases (melanoma colonies in the lungs)” value with B16F10 melanoma cells is reported as “significant inhibitory effect; also recorded: significantly reduced”.

With `C/C=C(\C)C(=O)C1=C2C3=CN([C@@H](CCC(=O)OC)C(=O)OC)C(/C=C/[C@@H](C)CC)=CC3=C(Cl)C(=O)[C@@]2(C)OC1=O` [Compound 1779], the cytotoxicity at 0.1 µM with NK92 cells [2] amounted to 22%.

Turning to `CC[C@H](C)/C=C(C)/C=C/C1=CC2=C(Cl)C(=O)[C@](C)(OC(C)=O)C(=O)C2=CN1CC(=O)O` [Compound 1996], the cytotoxicity at 0.1 µM in the assay on NK92 cells [2] came out at 6.12%.

Take `CC[C@H](C)/C=C(C)/C=C/C1=CC2=C(Cl)C(=O)[C@](C)(OC(C)=O)C(=O)C2=CN1[C@@H](Cc1ccc(O)cc1)C(=O)O` [Compound 1997]: in the assay on NK92 cells [2], the cytotoxicity at 0.1 µM turned out to be 29.5%.

Consider `CC[C@H](C)/C=C(C)/C=C/C1=CC2=C(Cl)C(=O)[C@](C)(OC(C)=O)C(=O)C2=CN1[C@@H](C)C(=O)O` [Compound 1998], for which, in the assay on NK92 cells [2], the cytotoxicity at 0.1 µM came to 78.4%.

Take `CC[C@H](C)/C=C(C)/C=C/C1=CC2=C(Cl)C(=O)[C@](C)(OC(C)=O)C(=O)C2=CN1[C@@H](CO)C(=O)O` [Compound 1999]: the cytotoxicity at 0.1 µM in the assay with NK92 cells [2] is 58.3%.

On to `CC[C@H](C)/C=C(C)/C=C/C1=CC2=C(Cl)C(=O)[C@](C)(OC(C)=O)C(=O)C2=CN1[C@@H](Cc1ccccc1)C(=O)O` [Compound 2000], for which the cytotoxicity at 0.1 µM in the assay with NK92 cells [2] turned out to be 65.2%.

Consider `CC[C@H](C)/C=C(C)/C=C/C1=CC2=C(Cl)C(=O)[C@](C)(OC(C)=O)C(=O)C2=CN1[C@@H](CC(C)C)C(=O)O` [Compound 2001], for which the cytotoxicity at 0.1 µM in the assay on NK92 cells [2] was determined as 18.7%.

As to `CC[C@H](C)/C=C(C)/C=C/C1=CC2=C(Cl)C(=O)[C@](C)(OC(C)=O)C(=O)C2=CO1` [Compound 2307], the cytotoxicity at 0.1 µM in the assay with NK92 cells [2] came to 38.3%.

Turning to `CC[C@H](C)/C=C(C)/C=C/C1=CC2=C(Cl)C(=O)[C@](C)(OC(C)=O)C(=O)C2=CN1CCO` [Compound 2308], the cytotoxicity at 0.1 µM with NK92 cells [2] worked out at 8.11%.

Turning to `CC[C@H](C)/C=C(C)/C=C/C1=CC2=C(Cl)C(=O)[C@](C)(OC(C)=O)C(=O)C2=CN1[C@H](C(=O)O)[C@@H](C)O` [Compound 2309], in the assay on NK92 cells [2], the cytotoxicity at 0.1 µM stood at 28.3%.

Regarding `C/C=C(\C)C(=O)C1=C2C3=CN([C@@H](Cc4c[nH]c5ccccc45)C(=O)O)C(/C=C/[C@@H](C)CC)=CC3=C(Cl)C(=O)[C@@]2(C)OC1=O` [Compound 2318], the cytotoxicity at 0.1 µM in the assay on NK92 cells [2] was 35.9%.

As for `C/C=C(\C)C(=O)C1=C2C3=CN([C@@H](Cc4c[nH]cn4)C(=O)O)C(/C=C/[C@@H](C)CC)=CC3=C(Cl)C(=O)[C@@]2(C)OC1=O` [Compound 2320], the cytotoxicity at 0.1 µM with NK92 cells [2] amounted to 22.2%.
